This note sets out measurements from US20240059703A1 (AMGEN INC., priority 2021, published 2024).

Where two headings read alike, the source gives them in different places.

Experiment [1] has as its target KRAS G12C (Homo sapiens (Human), UniProt P01116, C118A/G12C). In words: 2 h coupled exchange assay. The format is biochemical. The protocol:
The term “2 h coupled exchange assay” or “20 h coupled exchange assay” as used herein refers to the assay described in the Section entitled “BIOLOGICAL EVALUATION.”

Experiment [2] deals with MIA PaCa-2 (human pancreatic carcinoma) cells. Put plainly: Cell Viability Assay (CellTiter-Glo), MIA PaCa-2. It counts as cell-based. The protocol: Serially-diluted compound or DMSO was added to the cells, and plates were incubated at 37° C., 5% CO2 for 72 h. Cell viability was measured using a CellTiter-Glo® Luminescent Cell Viability Assay kit (Promega) according to the manufacturer's protocol. The luminescence signal of treated samples was normalized to DMSO control, and data were analyzed using a 4-parameter logistic model to calculate IC50 values.

The subject of experiment [3] is A549 (human lung carcinoma) cells. Put plainly: Cell Viability Assay (CellTiter-Glo), A549. It counts as cell-based. The method, boiled down:
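After a 72 h exposure to serial compound dilutions at 37° C, luminescent ATP content was measured with CellTiter-Glo. The cells were A549 or MIA PaCa-2, seeded at 1.67E+04 cells/mL in RPMI 1640 with 10% serum. Signals were normalized to DMSO controls and IC50 fitted with a 4-parameter logistic model.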

Where [4] appears, read: Avg 2 h Coupled exchange IC50, 2 h compound pre-incubation.
[5] abbreviates: Avg 2 h Coupled exchange IC50, 2 h compound pre-incubation, SOS-mediated nucleotide exchange.

KRAS G12C, sequence (P01116 other isoform, or with tags, fused parts or gaps G12C/C118A): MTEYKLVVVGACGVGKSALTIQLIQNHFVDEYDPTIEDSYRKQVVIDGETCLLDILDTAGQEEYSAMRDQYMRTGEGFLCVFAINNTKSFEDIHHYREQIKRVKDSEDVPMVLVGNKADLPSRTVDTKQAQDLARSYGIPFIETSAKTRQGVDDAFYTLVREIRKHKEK

For `C=CC(=O)N1CC2(CCN(c3nc4cc(-c5scnc5C)ccc4c(-c4ccccc4O)c3C#N)C2)C1` [Example 20-20, 4-(2-hydroxyphenyl)-7-(4-methyl-1,3-thiazol-5-yl)-2-(2-(2-propenoyl)-2,6-diazaspiro[3.4]octan-6-yl)-3-quinolinecarbonitrile], the IC50 in experiment [1] (setting [4]) came out at 162 nM; in experiment [2] (Homo sapiens, MIA PaCa-2, 72 h), 1750 nM; in experiment [3] (Homo sapiens, A549, 72 h), 6850 nM.

Take `C=CC(=O)N1CC2(CCN(c3nc4cc(-c5scnc5C)cnc4c(-c4cccc(C)c4C)c3C#N)C2)C1` [Example 19-1, 4-(2,3-Dimethylphenyl)-7-(4-methyl-1,3-thiazol-5-yl)-2-(2-(2-propenoyl)-2,6-diazaspiro[3.4]octan-6-yl)-1,5-naphthyridine-3-carbonitrile]: the IC50 in experiment [1] (setting [4]) is 74 nM; in experiment [2] (Homo sapiens, MIA PaCa-2, 72 h) it was 374 nM; in experiment [3] (Homo sapiens, A549, 72 h), over 5000 nM.

For `C=CC(=O)N1CC2(CCN(c3nc4c(c(-c5cccc6cn[nH]c56)c3C#N)C[C@H]3C[C@@H]4C3(C)C)C2)C1` [Example 14-25, (1R,9R)-6-(1H-indazol-7-yl)-10,10-dimethyl-4-(2-(2-propenoyl)-2,6-diazaspiro[3.4]octan-6-yl)-3-azatricyclo[7.1.1.0^2,7]undeca-2,4,6-triene-5-carbonitrile], the half-inhibitory concentration (IC50) in experiment [1] (setting [4]) is 110 nM; in experiment [2] (Homo sapiens, MIA PaCa-2, 72 h), 669 nM; in experiment [3] (Homo sapiens, A549, 72 h), over 5000 nM.

With `C=CC(=O)N1CC2(CCN(c3nc4c(c(-c5c(C)ccc6cnn(C)c56)c3C#N)C[C@H]3C[C@@H]4C3(C)C)C2)C1` (single isomer, unassigned) [Example 13-106], the IC50 in experiment [1] (setting [5]) is 78 nM; in experiment [2] (Homo sapiens, MIA PaCa-2, 72 h), 831 nM; in experiment [3] (Homo sapiens, A549, 72 h), over 5000 nM.

Regarding `C=CC(=O)N1CC2(CCN(c3nc4c(c(-c5c(C)ccc6[nH]ncc56)c3C#N)CC(C(C)C)C4)C2)C1` (racemic) [Example 24-1, (6R)-4-(5-methyl-1H-indazol-4-yl)-6-(2-propanyl)-2-(2-(2-propenoyl)-2,6-diazaspiro[3.4]octan-6-yl)-6,7-dihydro-5H-cyclopenta[b]pyridine-3-carbonitrile and (6S) 4-(5-methyl-1H-indazol-4-yl)-6-(2-propanyl)-2-(2-(2-propenoyl)-2,6-diazaspiro[3.4]octan-6-yl)-6,7-dihydro-5H-cyclopenta[b]pyridine-3-carbonitrile], the IC50 in experiment [1] (read-out: Avg 2 h Coupled exchange IC50, 2 h compound pre-incubation) is 62 nM; in experiment [2] (72 h), 1120 nM; in experiment [3] (72 h) it was over 5000 nM.

For `C=CC(=O)N1CC2(CCN(c3nc4c(c(-c5c(N)c(Cl)cc(Cl)c5F)c3C#N)COC(C)(C)C4)C2)C1` [Example 13-154, 4-(2-amino-3,5-dichloro-6-fluorophenyl)-7,7-dimethyl-2-(2-(2-propenoyl)-2,6-diazaspiro[3.4]octan-6-yl)-7,8-dihydro-5H-pyrano[4,3-b]pyridine-3-carbonitrile], the half-maximal inhibitory concentration (IC50) was 81 nM in experiment [1] (setting [5]); 776 nM in experiment [2] (Homo sapiens, MIA PaCa-2, 72 h); over 5000 nM in experiment [3] (Homo sapiens, A549, 72 h).

As to `C=CC(=O)N1CC2(CCN(c3nc4c(c(-c5c(C)c(Cl)cc6cnn(C)c56)c3C)CCN(C(C)C)C4)C2)C1` [Example 12-22, 1-(6-(4-(5-chloro-1,6-dimethyl-1H-indazol-7-yl)-3-methyl-7-(2-propanyl)-5,6,7,8-tetrahydro-1,7-naphthyridin-2-yl)-2,6-diazaspiro[3.4]octan-2-yl)-2-propen-1-one], the concentration for half-maximal inhibition (IC50) was 37 nM in experiment [1] (setting [5]); 44 nM in experiment [2] (Homo sapiens, MIA PaCa-2, 72 h); over 5000 nM in experiment [3] (Homo sapiens, A549, 72 h).

Turning to `C=CC(=O)N1CC2(CCN(c3nc4c(c(-c5c(C)ccc6cn[nH]c56)n3)CCCC4)C2)C1` [Example 1-16, 1-(6-(4-(6-methyl-1H-indazol-7-yl)-5,6,7,8-tetrahydro-2-quinazolinyl)-2,6-diazaspiro[3.4]octan-2-yl)-2-propen-1-one], the 50% inhibitory concentration (IC50) in experiment [1] (setting [5]) was 6720 nM; in experiment [2] (Homo sapiens, MIA PaCa-2, 72 h) it was 10300 nM; in experiment [3] (Homo sapiens, A549, 72 h) it was over 25000 nM.

Regarding `C=CC(=O)N1CC2(CCN(c3nc4c(c(-c5cc(O)ccc5F)c3C#N)CCCC4)C2)C1` [Example 2-9, 4-(2-fluoro-5-hydroxyphenyl)-2-(2-(2-propenoyl)-2,6-diazaspiro[3.4]octan-6-yl)-5,6,7,8-tetrahydro-3-quinolinecarbonitrile], the 50% inhibitory concentration (IC50) was 410 nM in experiment [1] (setting [5]); 2970 nM in experiment [2] (Homo sapiens, MIA PaCa-2, 72 h); 6120 nM in experiment [3] (Homo sapiens, A549, 72 h).

Consider `C=CC(=O)N1CC2(CCN(c3nc4c(c(-c5c(C)ccc6[nH]ncc56)c3C#N)CC[C@@H](C(F)(F)F)C4)C2)C1` (racemic) [Example 13-10, (7R)-4-(5-methyl-1H-indazol-4-yl)-2-(2-(2-propenoyl)-2,6-diazaspiro[3.4]octan-6-yl)-7-(trifluoromethyl)-5,6,7,8-tetrahydro-3-quinoline-carbonitrile|(7S)-4-(5-methyl-1H-indazol-4-yL)-2-(2-(2-propenoyl)-2,6-diazaspiro[3.4]octan-6-yl)-7-(trifluoromethyl)-5,6,7,8-tetrahydro-3-quinolinecarbonitrile], for which the IC50 in experiment [1] (read-out: Avg 2 h Coupled exchange IC50, 2 h compound pre-incubation, SOS-mediated nucleotide exchange) is 71 nM; in experiment [2] (72 h), 246 nM; in experiment [3] (72 h), over 5000 nM.

For `C=CC(=O)N1CC2(CCN(c3cc4ccccc4c(-c4c(C)ccc5[nH]ncc45)c3C#N)C2)C1` [Example 1-2, 3-(2-acryloyl-2,6-diazaspiro[3.4]octan-6-yl)-1-(5-methyl-1H-indazol-4-yl)-2-naphthonitrile], the IC50 in experiment [1] (setting [5]) came out at 158 nM; in experiment [2] (Homo sapiens, MIA PaCa-2, 72 h), 580 nM; in experiment [3] (Homo sapiens, A549, 72 h), 3710 nM.

Turning to `C=CC(=O)N1CC2(CCN(c3nc(-c4ccccc4F)c4ccn(C)c4n3)C2)C1` [Example 1-32], the half-inhibitory concentration (IC50) came out at 250000 nM in experiment [1] (setting [5]); 17100 nM in experiment [2] (Homo sapiens, MIA PaCa-2, 72 h); 12100 nM in experiment [3] (Homo sapiens, A549, 72 h).

Regarding `C=CC(=O)N1CC2(CCN(c3cc4c(c(-c5c(C)ccc6[nH]ncc56)c3C)COCC4)C2)C1` [Example 14-104, 1-(6-(7-methyl-8-(5-methyl-1H-indazol-4-yl)-3,4-dihydro-1H-2-benzopyran-6-yl)-2,6-diazaspiro[3.4]octan-2-yl)-2-propen-1-one], the IC50 is 242 nM in experiment [1] (setting [4]); 210 nM in experiment [2] (Homo sapiens, MIA PaCa-2, 72 h); over 5000 nM in experiment [3] (Homo sapiens, A549, 72 h).

As to `C=CC(=O)N1CC2(CCN(c3nc4c(c(-c5cc(O)c(F)c6ccccc56)c3C#N)CC[C@@H]3C[C@H]43)C2)C1` (single isomer, unassigned) [Example 13-74], the IC50 is 76 nM in experiment [1] (setting [5]); over 5000 nM in experiment [2] (72 h); over 5000 nM in experiment [3] (Homo sapiens, A549, 72 h).

For `C=CC(=O)N1CC2(CCN(c3nc4c(c(-c5ccc(F)cc5Cl)c3C#N)CCC(c3scnc3C)=C4)C2)C1` [Example 23-18, 4-(2-chloro-4-fluorophenyl)-7-(4-methyl-1,3-thiazol-5-yl)-2-(2-(2-propenoyl)-2,6-diazaspiro[3.4]octan-6-yl)-5,6-dihydro-3-quinolinecarbonitrile], the IC50 in experiment [1] (setting [4]) turned out to be 104 nM; in experiment [2] (72 h), 591 nM; in experiment [3] (Homo sapiens, A549, 72 h), 2880 nM.

On to `C=CC(=O)N1CC2(CCN(c3nc4c(c(-c5ccccc5O)c3C#N)CCC(c3scnc3C)=C4)C2)C1` [Example 23-40, 4-(2-hydroxyphenyl)-7-(4-methyl-1,3-thiazol-5-yl)-2-(2-(2-propenoyl)-2,6-diazaspiro[3.4]octan-6-yl)-5,6-dihydro-3-quinolinecarbonitrile], for which the IC50 in experiment [1] (setting [4]) worked out at 136 nM; in experiment [2] (Homo sapiens, MIA PaCa-2, 72 h) it was 2280 nM; in experiment [3] (Homo sapiens, A549, 72 h), 7260 nM.

Take `C=CC(=O)N1CC2(CCN(c3nc4c(c(-c5cccc6cc(O)ccc56)c3C)CCN(CC(O)C(F)(F)F)C4)C2)C1` [Example 18-18, 1-(6-(4-(6-hydroxy-1-naphthalenyl)-3-methyl-7-((2R)-3,3,3-trifluoro-2-hydroxypropyl)-5,6,7,8-tetrahydro-1,7-naphthyridin-2-yl)-2,6-diazaspiro[3.4]octan-2-yl)-2-propen-1one|1-(6-(4-(6-hydroxy-1-naphthalenyl)-3-methyl-7-((2S)-3,3,3-trifluoro-2-hydroxypropyl)-5,6,7,8-tetrahydro-1,7-naphthyridin-2-yl)-2,6-diazaspiro[3.4]octan-2-yl)-2-propen-1-one]: the half-maximal inhibitory concentration (IC50) in experiment [1] (setting [4]) is 106 nM; in experiment [2] (Homo sapiens, MIA PaCa-2, 72 h), 402 nM; in experiment [3] (Homo sapiens, A549, 72 h) it was over 5000 nM.

With `C=CC(=O)N1CC2(CCN(c3nc4c(c(-c5ccccc5Cl)c3C#N)COC(c3scnc3C)C4)C2)C1` [Example 23-15, (7R)-4-(2-chlorophenyl)-7-(4-methyl-1,3-thiazol-5-yl)-2-(2-(2-propenoyl)-2,6-diazaspiro[3.4]octan-6-yl)-7,8-dihydro-5H-pyrano[4,3-b]pyridine-3-carbonitrile (7S)-4-(2-chlorophenyl)-7-(4-methyl-1,3-thiazol-5-yl)-2-(2-(2-propenoyl)-2,6-diazaspiro[3.4]octan-6-yl)-7,8-dihydro-5H-pyrano[4,3-b]pyridine-3-carbonitrile], the half-inhibitory concentration (IC50) in experiment [1] (setting [4]) was 196 nM; in experiment [2] (Homo sapiens, MIA PaCa-2, 72 h), 972 nM; in experiment [3] (Homo sapiens, A549, 72 h), over 5000 nM.

Turning to `C=CC(=O)N1CC2(CCN(c3nc4c(c(-c5c(C)cnc6[nH]ncc56)c3C#N)CCC(C)(C)C4)C2)C1` [Example 13-151, 7,7-dimethyl-4-(5-methyl-1H-pyrazolo[3,4-b]pyridin-4-yl)-2-(2-(2-propenoyl)-2,6-diazaspiro[3.4]octan-6-yl)-5,6,7,8-tetrahydro-3-quinolinecarbonitrile], the IC50 in experiment [1] (setting [5]) is 149 nM; in experiment [2] (Homo sapiens, MIA PaCa-2, 72 h) it was 1190 nM; in experiment [3] (Homo sapiens, A549, 72 h) it was 9340 nM.
